# Source: paper PMC6104039 (Nature Communications, 2018)
# Entries after “also recorded” stand apart in the source; their conditions may differ.
# Columns and labels:
# murine CerS1 = molecular target: T1, murine CerS1 (Mus musculus, UniProt P27545); experiment: Ceramide synthase assay, NBD-dihydrosphingosine, C18:0-CoA; COS cells expressing murine CerS1; format: biochemical; details: inhibitor range 10 nM–100 μM; read-out: IC50 mCerS1
# T1 construct: expressed in transfected cells; host or cells: COS cells (lentiviral infection)
# Procedure: Ceramide synthase assays were carried out using an HPLC-based assay with a fluorescent NBD-dihydrosphingosine substrate. All cell lines used for these assays were originally sourced from ATCC. […] Human CerS expression plasmids (pCMV6 plasmids from Origene) were transfected using FuGene-6 transfection reagent, and cells were harvested 24 h after transfection in 20 mM Hepes pH 7.4, 10 mM KCl, 1 mM dithiothreitol, 3 mM β-glycerophosphate, and EDTA-free complete protease inhibitor cocktail (Roche). Cells were sonicated in a Diagenode Bioruptor sonicating bath for 5 min, after which cell extracts were cleared by centrifugation at 800 × g for 10 min. Protein concentration in the supernatant was assayed using the bicinchoninic acid (BCA) assay, and the supernatant stored at −80 °C. COS cells were infected with lentiviral constructs expressing murine CerS1, 2, or 5, then homogenised as described above.
# (§1) The reaction buffer consisted of 20 mM Hepes pH 7.4, 25 mM KCl, 2 mM MgCl2, 0.5 mM dithiothreitol, 0.1% fatty acid free BSA, 10 μM NBD-dihydrosphingosine and 50 μM fatty acid free BSA. […] The reaction mixture was transferred to a glass HPLC vial with 300 μL fused glass insert (Thermo Fisher Scientific) and NBD-dihydroceramide reaction products were analysed on a Thermo Scientific Surveyor HPLC connected to a Shimadzu RF-10AXL fluorescent detector (set to gain of 3). […]
# HEK293 cells = experiment: Detection of the phosphate of the compound in cultured cells, LC-MS/MS; format: in vitro ADME; details: 1 µM, 2 h
# Procedure: LC-MS/MS was performed on a TSQ Quantum Access triple quadrupole mass spectrometer in positive ion mode, coupled to an Accela UPLC system (Thermo Scientific). Extracts (20 μL) were separated on a 2 × 100 mm Eclipse XDB-C8 column with 1.8 μm particle size (Agilent Technologies), using a 7.5 min binary HPLC gradient: 0 min, 70% B ([…]); 1.5 min, 70% B; 3.5 min, 95% B; 4 min, 95% B; 4.5 min, 70% B; 7.5 min 70% B. Mobile phase A: 2 mM ammonium formate/1% formic acid in water; mobile phase B: 1 mM ammonium formate/1% formic acid in methanol. The flow rate was 0.4 mL min^−1, increasing to 0.5 mL min^−1 from 5–7 min, and column oven 30 °C. […] Visualisation and quantification of peaks was performed using Thermo Fisher’s XCalibur software v2.2.
# Supplementary Figure 8. P053 is not phosphorylated in situ or in vivo. (a-b) HEK293 cells […]
# LC-MS/MS analysis. Chromatograms for (a) FTY720 and its phosphate, and (b) P053 and its putative phosphate are shown. […]
# mg/kg/day for 6 weeks, corresponding to a plasma concentration of ~300 nM. No peak is […]
# (1 picture or pasted object on this page, not shown here)
# murine CerS2 = murine CerS2 (Mus musculus, UniProt Q924Z4); experiment: Ceramide synthase assay, NBD-dihydrosphingosine, C24:1-CoA; COS cells expressing murine CerS2; format: biochemical; details: inhibitor range 10 nM–100 μM; read-out: IC50 mCerS2
# Procedure: Ceramide synthase assays were carried out using an HPLC-based assay with a fluorescent NBD-dihydrosphingosine substrate. All cell lines used for these assays were originally sourced from ATCC. […] Cells were sonicated in a Diagenode Bioruptor sonicating bath for 5 min, after which cell extracts were cleared by centrifugation at 800 × g for 10 min. Protein concentration in the supernatant was assayed using the bicinchoninic acid (BCA) assay, and the supernatant stored at −80 °C. COS cells were infected with lentiviral constructs expressing murine CerS1, 2, or 5, then homogenised as described above.
# as §1, with “BSA. C18:0-CoA was used as the fatty acyl substrate for CerS1 and CerS4; C24:1-CoA for CerS2; and C16:0-CoA for CerS5 and CerS6. All reactions were run in triplicate.” for “BSA.”
# SkM = experiment: Targeted quantification of sphingosine and dihydrosphingosine in SkM; format: in vivo, mice; details: 5 mg/kg daily
# Excerpt: Male C57BL6/J mice were obtained from the Animal Resources Centre in Perth (WA, Australia). […] Treatment was commenced at the same time as mice were randomised to dietary groups. The experiments were approved by the UNSW animal care and ethics committee (ACEC 15/48B), and followed guidelines issued by the National Health and Medical Research Council of Australia.
# murine CerS2, sequence (Q924Z4 whole entry): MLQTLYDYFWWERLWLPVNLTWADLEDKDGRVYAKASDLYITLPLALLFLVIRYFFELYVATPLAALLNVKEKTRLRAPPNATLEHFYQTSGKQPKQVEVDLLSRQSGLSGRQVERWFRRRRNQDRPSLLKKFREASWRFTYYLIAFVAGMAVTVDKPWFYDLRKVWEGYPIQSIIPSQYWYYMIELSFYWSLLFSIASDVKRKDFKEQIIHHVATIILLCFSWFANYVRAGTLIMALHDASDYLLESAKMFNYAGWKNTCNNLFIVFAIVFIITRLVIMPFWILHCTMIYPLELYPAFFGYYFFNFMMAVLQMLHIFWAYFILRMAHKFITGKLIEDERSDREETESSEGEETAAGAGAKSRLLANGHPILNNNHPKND
# T1 sequence (P27545 whole entry): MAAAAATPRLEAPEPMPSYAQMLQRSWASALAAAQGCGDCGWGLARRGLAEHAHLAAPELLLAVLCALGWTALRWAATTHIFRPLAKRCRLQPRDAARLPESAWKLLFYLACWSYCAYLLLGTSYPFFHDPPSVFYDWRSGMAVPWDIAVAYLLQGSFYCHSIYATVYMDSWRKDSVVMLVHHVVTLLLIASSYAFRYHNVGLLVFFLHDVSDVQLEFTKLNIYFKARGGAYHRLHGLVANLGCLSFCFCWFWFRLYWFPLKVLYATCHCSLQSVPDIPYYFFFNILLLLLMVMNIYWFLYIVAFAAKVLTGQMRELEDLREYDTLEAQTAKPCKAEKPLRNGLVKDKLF
Structure (SMILES),IC50 (murine CerS1),phosphate of the compound in cultured HEK293 cells (HEK293 cells),IC50 (murine CerS2),dihydrosphingosine levels in SkM (SkM),increase of sphingosine levels in SkM (SkM; HFD),"increase of sphingosine levels in SkM (SkM; chow diet, not significant)"
"CCCCCCCCc1ccc(CCC(N)(CO)CO)cc1 [FTY720, reference compound]",5.6 ± 0.05 µM,definitive peak; also recorded: clearly detected,10.6 ± 0.13 µM,–,–,–
"C[C@@](N)(CO)CCc1ccc(OCc2ccc(Cl)c(Cl)c2)cc1 [P053, (S)-2-amino-4-(4-(3,4-dichlorobenzyloxy)phenyl)-2-methylbutan-1-ol]",0.46 ± 0.08 µM,only background signal; also recorded: not detected,18.5 ± 0.12 µM,not notably affected,22%,11%
